# Assay results from article PMC6135860 (Neuropsychopharmacology, 2018).
# Read-outs that look alike come from different tables or passages of the source.
# What was measured:
# [1] = tested on: pCREB, BDNF, pSynapsin, PSD95 in humanized PDE4D mice; assay: Immunoblot of hippocampal plasticity-related proteins; assay type: in vivo, mouse
# Protocol: Hippocampal tissues were treated with lysis buffer for protein extraction. Then, 10–30 μg protein was separated using gel electrophoresis and transferred to polyvinylidene difluoride membranes, blocked with blocking buffer, and incubated with primary antibodies overnight at 4 °C. Labeled protein bands were detected using the enhanced chemiluminescence method and quantified using Quantity One 1-D Analysis Software.
# Hippocampal tissues were lysed with RIPA buffer containing protease and phosphatase inhibitors and centrifuged at 13,000 rpm for 30 min at 4 °C. Aliquots of supernatant containing 10-30 μg protein were separated using 10% SDS-PAGE as described previously^66. Proteins from the gels were transferred to polyvinylidene difluoride membranes, blocked with blocking buffer (phosphate buffered saline containing 3% BSA and 0.1% sodium azide), and incubated with primary antibodies overnight at 4°C (phospho-CREB at Ser 133 (# ab32096, diluted 1:1000, abcam, Cambridge, MA), CREB (# sc-186, diluted 1:200, Santa Cruz Biotechnology, Dallas, Texas), β -actin (Catalog # ab8227, diluted 1:2000, abcam, Cambridge, MA)), Synapsin (#2312, diluted 1:1000, Cell Signaling Technology), Phospho-synapsin (#2311, diluted […], Cell Signaling Technology ), and PSD-95 (#2507, diluted 1:1000, Cell Signaling Technology, Danvers, MA). Labeled protein bands were detected using the enhanced chemiluminescence (ECL) method and quantified using Quantity One 1-D Analysis Software.
# [2] = biological target: T1, mouse PDE4B3 dimer S133D(PKA) (Mus musculus, UniProt Q8VBU5, S118D); assay: PDE4 kinetic cAMP hydrolysis coupled-enzyme assay; assay type: biochemical
# T1 construct: hexahistidine; Proteos Inc; host or cells: Baculovirus-infected Sf9 insect cells
# T1 sequence (Q8VBU5 1-721 S118D): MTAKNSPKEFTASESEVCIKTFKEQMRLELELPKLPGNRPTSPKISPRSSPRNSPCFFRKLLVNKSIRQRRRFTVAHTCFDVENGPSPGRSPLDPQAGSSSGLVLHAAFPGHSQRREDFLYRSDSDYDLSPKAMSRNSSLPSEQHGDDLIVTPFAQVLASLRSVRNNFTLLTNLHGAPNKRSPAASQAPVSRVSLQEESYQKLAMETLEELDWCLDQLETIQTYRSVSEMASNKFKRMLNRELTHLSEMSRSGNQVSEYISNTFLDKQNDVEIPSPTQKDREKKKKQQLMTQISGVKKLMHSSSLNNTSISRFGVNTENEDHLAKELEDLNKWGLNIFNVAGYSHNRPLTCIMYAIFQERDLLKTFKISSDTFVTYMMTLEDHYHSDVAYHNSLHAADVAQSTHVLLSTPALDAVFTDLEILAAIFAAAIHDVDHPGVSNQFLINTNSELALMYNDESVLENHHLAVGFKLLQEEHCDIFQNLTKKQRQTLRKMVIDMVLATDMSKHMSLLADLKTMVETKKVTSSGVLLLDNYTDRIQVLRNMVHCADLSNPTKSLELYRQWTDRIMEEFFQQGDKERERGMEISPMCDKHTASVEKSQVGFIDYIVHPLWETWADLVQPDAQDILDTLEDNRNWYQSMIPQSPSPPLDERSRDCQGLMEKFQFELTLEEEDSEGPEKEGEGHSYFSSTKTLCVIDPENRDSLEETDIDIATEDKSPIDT
# Protocol: Kinetic assay of cAMP hydrolysis by purified PDE4 enzymes is measured by coupling the formation of the PDE4 reaction product 5′-adenosine monophosphate (AMP) to the oxidation of reduced nicotinamide adenine dinucleotide (NADH). This is accomplished with three coupling enzymes (yeast myokinase, pyruvate kinase, and lactate dehydrogenase), and allows fluorescent determination of reaction rates [19]. To measure inhibition of PDE4 enzymes by test compounds, data were percent normalized relative to controls and are presented as percent inhibition.
# Kinetic assay of cAMP hydrolysis by purified PDE4 enzymes is measured by coupling the formation of the PDE4 reaction product 5′-adenosine monophosphate (AMP) to the oxidation of reduced nicotinamide adenine dinucleotide (NADH). This is accomplished with three coupling enzymes (yeast myokinase, pyruvate kinase, and lactate dehydrogenase), and allows fluorescent determination of reaction rates.^19 Assays were performed in 96-well plates in a total volume of 200 μl/well. Compounds were dissolved in dimethylsulfoxide (DMSO) and added to plates in a volume of 10 μl followed by addition of 165 μl of assay mix. Plates were pre-incubated at 25 °C for 10 min. The enzyme reaction was initiated by the addition of 25 μl of cAMP followed by thorough mixing. […] Initial rates (slopes) were determined from linear portions of the progress curves. […]
# humanized PDE4D mice [3] = assay: Novel object recognition, 24 h inter-trial interval; assay type: in vivo, mouse
# Protocol: The novel object recognition test was performed as described elsewhere [32, 33]. Briefly, the task procedure consists of three phases: habituation phase on day 1 for 10 min, training (T1) phase on day 2 for 5 min, and testing (T2) phase on day 3 for 5 min. The duration each animal spent exploring the objects was recorded. Time spent exploring the identical objects in T1 was recorded as a1 and a2; time spent exploring the familiar and the novel objects in T2 was recorded as “a” and “b”, respectively. The following variables were calculated: e1 = a1 + a2, e2 = a + b, the relative discrimination index d2 = (b–a)/e2.
# Novel object recognition. Mice were handled for 3-5 min for 5 days in a row. The novel object recognition test was performed in a Plexiglas open field box (L30 cm, W50 cm, H40 cm) as described elsewhere^64,65. Briefly, the task procedure consists of three phases: habituation, training (T1), and testing (T2). In the habituation phase (day 1), each animal is allowed to freely explore the apparatus for 10 min; then the animal is returned to its home cage. During the training phase (day 2), a single animal is placed in the center of the open field containing two identical objects located on the diagonal of the field, and allowed to explore for 5 min. After a retention interval after T1 of 24 h (long-term recall) or 1 h (scopolamine-impairment model), the animal was subjected to the T2 testing phase for 5 min, during which one familiar object and one novel object were presented. The arena and objects were thoroughly wiped with 70% ethanol after each trial to avoid the presence of any olfactory cues. The animals were considered to be exploring the object when directing their nose to the object at a distance of no more than 2 cm and/or touching or sniffing the object. The duration each animal spent exploring the objects was recorded. Time spent exploring the identical objects in T1 was recorded as a1 and a2; time spent exploring the familiar and the novel objects in T2 was recorded as ‘a’ and ‘b’, respectively. The following variables were calculated: e1 = a1 + a2, e2 = a + b, the relative discrimination index d2 = (b – a)/e2.
# [4] = biological target: PDE4 binding sites in wild-type mouse brain membranes; assay: [3H]-rolipram radioligand binding to brain membranes; settings: wild-type
# Protocol: Mice were killed by decapitation, and the brains were immediately dissected on ice and homogenized in binding buffer using a Polytron homogenizer (Brinkman Instruments, Westbury, NY). The membrane fraction of the homogenate was obtained by centrifugation at 15,000 × g for 15 min, and resuspension of the pellet in the binding buffer.
# Mice were killed by decapitation, and the brains were immediately dissected on ice and homogenized in binding buffer (50 mM Tris-HCl, 5 mM MgCl2, pH 7.5) using a Polytron homogenizer (Brinkman Instruments, Westbury, NY). The membrane fraction of the homogenate was obtained by centrifugation at 15,000 g for 15 min, and resuspension of the pellet in the binding buffer^29.
# At the end of the incubation, reactions were stopped by adding 5 ml of the ice-cold binding buffer and rapid vacuum filtration through glass fiber filters that had been soaked in 0.3% polyethyleneimine. The filters were then washed twice with 5 ml of the ice-cold binding buffer, and discs of filter paper were collected for measurement of radioactivity by liquid scintillation counting.
# humanized PDE4D mice [5] = assay: Y-maze spontaneous alternation test; assay type: in vivo, mouse; settings: humanized PDE4D mice, oral gavage 1 h prior to test
# Protocol: The test consists of a single 5 min trial, in which the mouse was allowed to explore all three arms of the Y-maze [31]. Spontaneous alternation (%) was defined as consecutive entries in three different arms, divided by the number of possible alternations (total arm entries minus 2).
# Y-maze spontaneous alternation test. The Y-maze apparatus made of matt blue Plexiglas had three identical arms (L 40 cm, W 5 cm, H 15 cm) placed at 120° from each other. The test consisted of a single 5 min trial, in which the mouse was allowed to explore all three arms of the Y-maze. The start arm was varied between animals to avoid placement bias. Spontaneous Alternation (%) was defined as consecutive entries in 3 different arms, divided by the number of possible alternations (total arm entries minus 2). Mice with less than 8 arm entries during the 5-min trial were excluded from the analysis.
# [6] = repeated oral dosing 14 days, hPDE4D mice
structure (smiles),measurement,setting,value
O=C(O)Cc1ccc(Cc2cc(-c3cccc(Cl)c3)nc(C(F)(F)F)c2)cc1 [BPN14770],hippocampal CREB phosphorylation or BDNF expression after single acute dose,"[1]; 1 h after dosing, data not shown",no change
same,synapsin phosphorylation in prefrontal cortex and cortex,"[1]; hPDE4D mice, repeated dosing, data not shown",increased phosphorylation of synapsin was also observed
same,increase in hippocampal PSD95,"[1]; repeated dosing, 0.03 mg/kg",1.4 fold
same,increase in hippocampal phosphorylation of synapsin,"[1]; repeated dosing, 0.03 mg/kg",1.5 fold
same,elevation of hippocampal BDNF,[1]; [6],2.1 fold
same,elevation of hippocampal CREB phosphorylation,[1]; [6],2.3 fold
same,IC50,[2],2120 ± 527 nM
same,dose range for effect on neurochemical and cognitive biomarkers,humanized PDE4D mice [3]; humanized PDE4D mice,0.01–0.03 mg/kg PO
same,greater potency for improving memory in humanized vs wild-type mice,humanized PDE4D mice [3]; memory tests overall,100 fold
same,Ki,"[4]; inhibition of 2 nM [3H]-rolipram binding, read-out: One-site Ki",124 ± 14.1 nM
same,Ki,"[4]; inhibition of [3H]-rolipram binding, read-out: Two-site Ki1",79.7 ± 17.1 nM
same,Ki,"[4]; inhibition of [3H]-rolipram binding, read-out: Two-site Ki2",622 ± 110 nM
same,MED for improved % alternation in Y-maze,humanized PDE4D mice [5],0.01 mg/kg
